Laboratory results from US20240059652A1, “AMORPHOUS MELANOCORTIN RECEPTOR AGONIST AND METHOD FOR PREPARING SAME” (LG CHEM, LTD., priority 2020, published 2024).

Tests used:
Assay type in all cases: physicochemical
[1] = vapour stress experiment (stability of the amorphous compound under solvent vapours, XRD pattern analysed); conditions: 5-7 days; for Result / XRD: vapour stress
Protocol: (§1) The following experiments were performed to evaluate the stability of the amorphous compound under various solvent vapours and controlled humidity conditions.
A vapour stress experiment was performed by placing about 25 mg of the amorphous compound of Example 1 into an unsealed vial, placing the vial in a large sealed container containing 1 mL of the selected solvent, and after 5-7 days, analyzing the XRD pattern of the sample.
(§2) The vapour stress and humidity stress experimental methods are methods used as methods for generating stable solvates or hydrates because, when a substance is exposed to vapours, a solid is plasticized, and molecular mobility is […]. However, for the amorphous compound of Example 1, the amorphous compound was maintained under various conditions according to the above experimental methods. Thus, it was confirmed that the amorphous compound was stable under the corresponding conditions.

[2] = humidity stress experiment (stability of the amorphous compound in relative humidity chambers, XRD pattern analysed); conditions: 5-7 days
Protocol: as §1
In addition, a humidity stress experiment was performed by placing about 25 mg of the amorphous compound of Example 1 in individual vials, storing the vials in an unsealed state in various relative humidity chambers (23% RH, 59% RH, 7% RH, 98% RH, 40° C./75% RH) for 5-7 days, and analyzing the XRD pattern.
as §2

[3] = as above; conditions: 75% RH stress, 5-7 days

## CC(C)C(=O)N([C@H]1C[C@@H](C(=O)N2CCOCC2)N(C(=O)[C@@H]2CN(C(C)(C)C)C[C@H]2c2ccc(Cl)cc2)C1)[C@H]1CC[C@@H](C)CC1 [Example 1, N-((3S,5S)-1-((3S,4R)-1-(tert-butyl)-4-(4-chlorophenyl)pyrrolidine-3-carbonyl)-5-(morpholine-4-carbonyl)pyrrolidin-3-yl)-N-((1s,4R)-4-methylcyclohexyl)isobutyramide]
[1]; 2-Me-THF
  Result: Solid
  XRD: Amorphous
[1]; ACS
  Result: Solid
  XRD: Amorphous
[1]; Acetone
  Result: Solid
  XRD: Amorphous
[1]; Benzyl alcohol
  Result: Solid
  XRD: Amorphous
[1]; Chlorobenzene
  Result: Solid
  XRD: Amorphous
[1]; Chloroform
  Result: Solid
  XRD: Amorphous
[1]; DCM
  Result: Solid
  XRD: Amorphous
[1]; DME
  Result: Solid
  XRD: Amorphous
[1]; DMSO
  Result: Solid
  XRD: Amorphous
[1]; Ethanol
  Result: Solid
  XRD: Amorphous
[1]; Formamide
  Result: Solid
  XRD: Amorphous
[1]; HFIPA
  Result: Solid
  XRD: Amorphous
[1]; Heptane
  Result: Solid
  XRD: Amorphous
[1]; IPA
  Result: Solid
  XRD: Amorphous
[1]; MEK
  Result: Solid
  XRD: Amorphous
[1]; MeOH
  Result: Solid
  XRD: Amorphous
[1]; NMP
  Result: Solid
  XRD: Amorphous
[1]; Nitromethane
  Result: Solid
  XRD: Amorphous
[1]; Pyridine
  Result: Solid
  XRD: Amorphous
[1]; THE
  Result: Solid
  XRD: Amorphous
[1]; Water
  Result: Solid
  XRD: Amorphous
[1]; various solvent vapours
  stability of the amorphous compound under vapour stress conditions: stable
[2]; 23% RH stress
  Result: Solid
  XRD: Amorphous
[2]; 40° C./75% RH stress
  Result: Solid
  XRD: Amorphous
[2]; 59% RH stress
  Result: Solid
  XRD: Amorphous
[2]; 75% RH stress
  Result: Solid
[2]; 98% RH stress
  Result: Solid
  XRD: Amorphous
[2]; controlled humidity conditions
  stability of the amorphous compound under humidity stress conditions: stable
[3]
  XRD: Amorphous
